Laboratory results from patent publication US5189212A, “Triarylethylene carboxylic acids with estrogenic activity” (University of Georgia Research Foundation, Inc., priority 1990, dated 1993).
“Also recorded” adds a separate entry of the source.

Key:
[1] = Rat liver microsomal glucuronidation; settings: rat, liver microsomes
[2] = system: UDP glucuronyl transferase; assay: Rat liver microsomal glucuronidation; settings: for Vmax: detergent-activated rat liver microsomes, 37° C., 30 min, average of two to three experiments; for substrate for UDP glucuronyl transferase: rat liver microsomes, in vitro
[3] = system: UDP glucuronyl transferase; settings: rat, microsomes, 0.5 h
estrogen receptor = biological target: T1, estrogen receptor (Rattus norvegicus, UniProt P06211); assay: Estrogen receptor affinity: competition with [3H]estradiol binding in rat uterine cytosol; settings: for estrogen receptor affinity relative to estradiol (affinity=100): estradiol = 100
T1 construct: Uteri from Sprague-Dawley rats (200-250g) are homogenized; from tissue; host or cells: rat uterus, 100000g supernatant (cytosol), Sprague-Dawley
T1 sequence (P06211 1-600): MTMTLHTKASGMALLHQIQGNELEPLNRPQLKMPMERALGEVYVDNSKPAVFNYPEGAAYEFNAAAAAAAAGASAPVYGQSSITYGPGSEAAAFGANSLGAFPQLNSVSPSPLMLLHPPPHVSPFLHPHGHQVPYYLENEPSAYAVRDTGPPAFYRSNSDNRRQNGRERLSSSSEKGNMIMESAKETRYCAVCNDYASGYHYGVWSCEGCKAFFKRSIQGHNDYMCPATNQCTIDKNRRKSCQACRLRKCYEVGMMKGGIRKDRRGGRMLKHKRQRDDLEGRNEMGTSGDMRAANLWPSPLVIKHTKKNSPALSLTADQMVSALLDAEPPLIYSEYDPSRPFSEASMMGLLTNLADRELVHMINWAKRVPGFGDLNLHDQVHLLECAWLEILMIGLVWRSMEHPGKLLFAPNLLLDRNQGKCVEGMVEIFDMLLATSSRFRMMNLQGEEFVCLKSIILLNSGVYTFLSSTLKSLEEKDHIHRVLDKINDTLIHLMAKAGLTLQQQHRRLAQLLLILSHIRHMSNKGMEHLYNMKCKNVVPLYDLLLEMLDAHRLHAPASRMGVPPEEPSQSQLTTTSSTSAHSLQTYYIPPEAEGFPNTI
Method: The estrogen receptor affinity of the triarylethylenes of Formula I can be measured according to the method of Ruenitz, et.al., J. Med. Chem., 25:1056, (1982).
[^3 H]Estradiol (58 Ci/mmol) can be obtained from Amersham Corp., and its radiochemical purity checked by TLC. Uteri from Sprague-Dawley rats (200-250g) are homogenized (1 uterus/2 mL) in ice-cold 10 mM Tris buffer, pH 7.4, that contains 1.5 mM EDTA and 3 mM sodium azide (TEA buffer). The homogenate is centrifuged at 100000g for 1 hour at 4° C. Incubation mixtures should contain 200-μμL aliquots of the supernatant, and 10 μL of a solution of 1.1×10^-7 M [^3 H]estradiol in dimethylacetamide, and 10 μL unlabeled competitor in dimethylacetamide. Ten concentrations of competitor are used ranging from 1×10^-9 to 5×10^-5 M. Control incubations should contain 10 μL of solvent alone. Nonspeoifio binding is determined in similarly prepared incubations that contain 1×10^-5 M estradiol. Incubations should be performed in triplicate, in 5-mL polypropylene centrifuge tubes, at 2°- 4° C. for 4 hours. Then a suspension of 400 μL of dextran-coated charcoal [0.1% dextran (Sigma no. D-1390), 1% acid-washed Norit A in TEA buffer]is added, and the incubation continues for 15 minutes at 2°-4° C. Tubes are then centrifuged at 1000g for 10 minutes, and 400-μL aliquots are dissolved in 5 mL of Scintivense (Fisher), Bound [^3 H]estradiol is determined by liquid scintillation spectrometry. Quench corrections are made by the external standard method.
The estrogen receptor affinity of 4-hydroxy tamoxifen acid was measured according to the assay described in Example 2. FIG. 2 is a graph of the effect of increasing concentrations (nM) of 4-HTA (--.quadrature.--), estradiol (--O--), and TA (-- --) on the binding of [^3 H]estradiol in uterine cytosol from immature rats. Specifically bound ^3 H from [^3 H]estradiol is plotted as a percentage of that bound in control incubations in the absence of 4-HTA, estradiol, or TA. Estradiol and tamoxifen, the non-hydroxylated analog of 4-HTA, were used as standards.

MCF7 breast cancer cells = assay: Reversal of the inhibitory effect of tamoxifen on MCF 7 cell growth; assay type: cell-based, human; settings: 1 μM tamoxifen, FIG. 4
Method: Cells were grown as summarized in Example 4 and tamoxifen was added to flasks as a solution in DMSO […], as were increasing concentrations of TA or 4-HTA.

[4] = system: MCF 7 human breast cancer cells; assay: Effect on proliferation of MCF 7 cells grown in the presence of estrogens; settings: cell numbers after five days, FIG. 3
Method: The antiestrogenic effect of the nonsteroidal triarylethylene compounds of Formula I is measured by comparing the growth of MCF7 breast cancer cells in the presence and absence of the compounds, according to the method described below for 4-hydroxy tamoxifen acid.
Cell numbers were determined five days later, after approximately four population doublings in drug free controls. Data shown are expressed as percentages of cell numbers in control flasks and are averages of six estimates from two separate experiments.

MCF 7 cells = assay: Stimulation of MCF 7 cell proliferation in estrogen free medium; assay type: cell-based, human; settings: nine days, FIG. 5
Method: Cells were conditioned as described in Example 2, and then withdrawn from estrogen stimulation and incubated with phenol red free medium prepared with charcoal-stripped fetal calf serum. After five days, medium was changed and 4-HTA or estradiol were added as described in Example 2. After nine days, cell numbers were determined.
Each point is the average of 3-6 determinations. […] These findings indicate that 4-HTA is a pure estrogen with no residual estrogen antagonist activity.

[5] = Distribution and elimination of TA and 4-HTA after intraperitoneal [14C]TAM in immature female rats; assay type: in vivo, rat; settings: for Percent of Dose Present as: Total 14C: i.p. [14C]TAM, rat, values ±5%
Method: Animals and Dosing. Female Sprague-Dawley rats, 45-55 grams each, were maintained on a normal laboratory diet and were divided into groups of four to six per experiment. […] This solution was prepared by dissolving the drug in 10 ml of 1% citric acid in N,N-dimethylacetamide and diluting the solution with 0.2 ml of 1.15% aqueous KCl just before use. Animals were housed in polycarbonate metabolism cages equipped for separate collection of urine and feces.
Processing of Biological Samples. At 24 and 48 hours after dosing, animals were killed by decapitation. Uteri and livers were removed and weights were recorded. Pooled uteri, and livers were homogenized in 10 volumes of methanol. Each homogenate was centrifuged at 400×g for 10 min. Triplicate 1.0 ml aliquots of supernatants were counted for radioactivity in 8 ml of Ecoscint (National Diagnostics, Somerville, N.J.). Collected urine was lyophilized. The residue was sonicated in methanol, and the mixture was filtered and the solid residue was washed with methanol to make the final volume equal to the original urine volume. This procedure removed endogenous polar materials with no loss of radioactivity. Feces collected 24 and 48 hr after dosing were homogenized in 10 volumes of methanol. The homogenate was centrifuged and analyzed for radioactivity as described above.
Extraction and Analysis. Unlabelled TA and 4-HTA […] were added as standards to methanol extracts of tissues, urine, and feces. A third standard, TA glyOH, was added only to the urine extract. Each solution was then concentrated under a stream of N2. To each residue was added 0.5 ml of 1% aqueous NaOH. The resulting mixture (pH≥11) was extracted serially two times with 1.0 ml portions of ether. Radioactivity present in these extracts was determined. To the aqueous phase was added 0.1 ml of 10% HCl, and the mixture (pH≤1) was extracted as before. Radioactivity was determined in some of these extracts. Otherwise, they were concentrated under a stream of N2. Each residue was dissolved in […] of acetone and the solution was applied to a TLC plate. Developed plates were segmented using the locations of reference compounds under UV light of 254 nm wavelength for guidance. Radioactivity was determined in segments containing reference compounds, and in some cases in all segments from TLC plates.
The specific activity of TA and 4-HTA eluted from developed chromatograms was determined by immersion of the segments containing these metabolites in a solution of 2.8% ammonia in methanol for 12 hr. Radioactivity in aliquots of eluates was determined, and quantities of TA and 4-HTA were estimated from absorbance of solutions at 283 nm using e283 =1.2×10^4 M^-1 cm-^-1 for each compound. Subsequent processing of eluates was conducted according to methods known in the art.

## CCC(=C(c1ccc(O)cc1)c1ccc(OCC(=O)OC)cc1)c1ccccc1 [Methyl 4-HTA]
[1]
  Km at 0.5 h: 73 µM
[2]
  Vmax: 16.5 nmols/mg-min
  substrate for UDP glucuronyl transferase: excellent substrate

## 4-hydroxytamoxifen [4-HT]
[3]
  Km: 83 µM
[2]
  Vmax: 7.4 nmols/mg-min

## CCC(=C(c1ccccc1)c1ccc(OCC(=O)O)cc1)c1ccccc1 [TA, (E,Z)-4-(1,2-diphenyl-1-butenyl)phenoxyacetic acid]
Estrogen receptor; FIG. 2
  binding to the estrogen receptor: also binds to the estrogen receptor
Estrogen receptor
  estrogen receptor affinity relative to estradiol (affinity=100): 0.01
MCF7 breast cancer cells
  reversal of the growth inhibitory effect of TAM on MCF 7 cells: to a lesser extent
MCF7 breast cancer cells; listed as tamoxifen acid
  reversal of the growth inhibitory effect of TAM on MCF 7 cells: both compounds reverse the growth inhibitory effect
[2]
  Vmax: 0.0 nmols/mg-min
[4]
  inhibition of growth/proliferation of MCF 7 human breast cancer cells: Neither tamoxifen acid nor 4-HTA inhibits the growth

## CCC(=C(c1ccc(O)cc1)c1ccc(OCC(=O)O)cc1)c1ccccc1 [4-HTA, (E,Z)-2-{4-[1-(p-hydroxyphenyl)-2-phenyl]-1-butenyl}phenoxyacetic acid]
Estrogen receptor; [3H]estradiol, uterine cytosol from immature rats, FIG. 2
  estrogen receptor affinity as percent of that of estradiol: 21%
Estrogen receptor
  estrogen receptor affinity relative to estradiol (affinity=100): 21
MCF7 breast cancer cells
  reversal of the growth inhibitory effect of TAM on MCF 7 cells: both compounds reverse the growth inhibitory effect; also recorded: reversed in a dose dependent manner
MCF 7 cells
  maximal level of MCF 7 growth stimulation compared with estradiol: stimulated growth to the same level as did estradiol
MCF 7 cells; submicromolar concentrations
  stimulation of MCF 7 cell growth: dose dependent stimulation of growth
[5]; immature female rat
  urinary elimination form: eliminated unchanged in the urine
[5]; immature female rat, after [14C]TAM
  presence in uterine or ovarian tissue: not detected in uterine or ovarian tissue
[2]
  Vmax: 0.0 nmols/mg-min
  substrate for UDP glucuronyl transferase: not a substrate
[4]
  inhibition of growth/proliferation of MCF 7 human breast cancer cells: Neither tamoxifen acid nor 4-HTA inhibits the growth; also recorded: no effect on proliferation

## CCC(=C(c1ccc(O)cc1)c1ccc(O)cc1)c1ccccc1 [TAM bis-phenol, 1,1-bis-(4-hydroxyphenyl)-2-phenyl-1-butene]
[1]
  Km at 0.5 h: 54 µM
[2]
  Vmax: 14.7 nmols/mg-min

## CC/C(=C(\c1ccccc1)c1ccc(OCCN(C)C)cc1)c1ccccc1 [TAM, (Z)-2-[4-(1,2-diphenyl-1-butenyl)phenoxy]-N,N-dimethylethanamine]
[5]; feces, 0-24 hr after dosing
  Percent of Dose Present as: Total 14C: 30.49%
[5]; feces, 24-48 hr after dosing
  Percent of Dose Present as: Total 14C: 16.05%
[5]; liver, 24 hr after dosing
  Percent of Dose Present as: Total 14C: 20.25%
[5]; liver, 48 hr after dosing
  Percent of Dose Present as: Total 14C: 2.84%
[5]; urine, 0-24 hr after dosing
  Percent of Dose Present as: Total 14C: 8.70%
[5]; uterus, 24 hr after dosing
  Percent of Dose Present as: Total 14C: 0.12%
[4]
  inhibition of growth/proliferation of MCF 7 human breast cancer cells: potent inhibitor of cell growth
